Source: patent US7988972B2, “Immunoreactive peptides from Epstein-Barr virus” (Ortho-Clinical Diagnostics, Inc., priority 1993, dated 2011)
Several values for one entry are separate records, joined by “and”; a condition that tells them apart may be missing. Equal values may be shown once.

What was measured:
[1] = tested on: CD4+ T-cell subpopulation; test: Proliferation assay with CD4+-enriched T-cell subpopulation; format: cell-based, human
Description: (§1) PBL enriched for T-cell subpopulations were isolated by depleting a particular population by antibody/complement-mediated cytotoxicity. CD4^+ cells were prepared by lysing CD8^+ cells with anti-CD8 antibody and rabbit complement whereas the CD8^+ T cell subpopulation was enriched by lysing CD4^+ cells with an anti-CD4 antibody and rabbit complement.
(§2) PBL were resuspended in RPMI-1640 medium containing 2 mM L-glutamine, 25 mM HEPES, and 10 μg per ml gentamicin (HEPES media) at a concentration of 20×10^6 cells per ml. T cell specific MAb, OKT4 or OKT8 (Ortho Diagnostics Inc.), was added to the cells at the optimal concentration (previously determined by titration to give maximal lysis) and incubated on ice for 30 minutes. The cells were then washed with fresh HEPES media and resuspended at 10×10^6 cells per ml in baby rabbit complement (Pel-Freez Clinical Systems) diluted with the HEPES media to the appropriate concentration (previously assayed to give maximal antibody-specific cytotoxicity). The cells were incubated for 45 minutes in a 37° C. water bath with gentle mixing every 15 minutes. After incubation, the cells were washed thoroughly with the HEPES media and an aliquot (1-2×10^6) of cells was removed and stained for flow cytometric analysis which was performed as described below. […]

[2] = tested on: CD8+ T-cell subpopulation; test: Proliferation assay with CD8+-enriched T-cell subpopulation; format: cell-based, human
Description: as §1, §2

[3] = tested on: anti-EA-R and anti-EA-D sera; test: ELISA, anti-EA-R and anti-EA-D sera against p17.1 and p50.10; format: binding, human; details: individual sera, donors Anti-EA-negative (VCA-negative); values >0.2 significant
Description: ELISA. The ELISA for measuring specific antibodies to p17, p50 or to the synthetic peptides was performed as previously described in detail (Luka et al., J. Immunol. Methods, 67:145-156, 1984). Aliquots of different antigen concentrations were diluted in 0.5M Na2CO3 buffer, pH 9.5, added to wells in polystyrene microtiter plates (Linbro) and the plates incubated overnight at 4° C. Following this incubation period, the plates were washed 5× with Tris-HCl, pH 7.4, containing 0.05% Tween 20, 50 mM NaCl and 100 mg per liter albumin (Sigma) and dried for 20 minutes at room temperature. The plates were screened with different anti-EA-R or EA-D antibody positive human sera and the monoclonal antibody to p17 or p50 to identify the optimal concentration of antigen to be used in the serological studies. Alkaline-phosphatase-labelled goat anti-human IgG (Sigma) or goat anti-mouse IgG (Sigma) was used as the indicator system.
For the testing of human sera for antibodies to native p17, p50 or to the synthetic peptides, sera were diluted 1:10 in ELISA buffer, added in 0.1 ml volumes to wells coated with optimal concentrations of antigen and the plates were incubated for 60 minutes at room temperature. […] The reaction was allowed to proceed for 30 minutes at 37° C. and then the plates were screened directly with a microplate reader, TITERTEK MULTISKAN MC (Flow), at 420 nm. […]

[4] = tested on: anti-EA antibodies in human sera; test: Serological reactivity of different sera (VCA-EA-, VCA+EA+, VCA+EA-) with p50.10; format: binding
Description: Serological reactivity of different sera (VCA−EA−, VCA+EA+, VCA+EA−) with the p50.10 synthetic peptide was performed as described in Example 1, according to Pothen, et al., supra.

Sequence: ETFTETWNRFITHTE [p17.1, synthetic peptide from 17 Kd early antigen (EA-R) region of EBV]
- S.I. ([1]; CD4+ subpopulation from donor A, different concentrations): ≤ 5.3
- proliferation response ([1]; CD4+ subpopulation from donor B): responded
- proliferation response ([2]; CD8+ subpopulation from donor A): unresponsive
- S.I. ([2]; CD8+ subpopulation from donor B, 50 μg per ml): greater than 3
- ELISA (420 nm) OD readings [3]: 0.024 and 0.071 and 0.027

Sequence: KQKHPKKVKQAFNPL [p50.10, synthetic peptide from 50 Kd early antigen (EA-D) region of EBV]
- reactivity with anti-EA antibody negative sera [4]: lack of reactivity
